Test results taken from patent US8173131B2, “Compositions and methods for modulating RSV infection and immunity” (PerkinElmer Health Sciences, Inc., priority 2000, dated 2012).

Key:
[1] = system: bronchoalveolar leukocytes (BAL); assay: BAL cell infiltration and cell types in RSV-infected mice following in vivo peptide treatment; design: species or system BALB/c mice; settings: in words
From the text: Total pulmonary leukocyte trafficking following treatment of mice with peptides containing a CX3C motif (RT33 and EYp1) (A) or peptides without a CX3C motif (RT34, Δ+1, Δ−1)(B).
(§1) Flow cytometry results following treatment (d−1) of mice with PBS, RT33, RT34, Δ+1, Δ−1 and EYp1 peptides (100 μm). BAL cells were stained with antibodies against B220^+ (A, D, G), CD3^+ (B, E, H) and CD11b^+ (C, F, I) cells. Data is expressed as the total BAL cells/lung±SEM at days 3, 5, 7 and 14 post-infection. A representative experiment from 3 independent experiments is shown.
as §1, with “NK (DX5^+)” for “B220^+”, “(A, C, E) and PMN (RB6-8C5^+) cells (B,” for “(A,”, “F).” for “G), CD3^+ (B, E, H) and CD11b^+ (C, F, I) cells.”
(§2) On day −1, prior to RSV infection, mice were i.p. treated (0.1 ml/mouse) with 100 μM of G glycoprotein peptides RT33 (CWAIC) (SEQ ID NO: 12), RT34 (lacks the CX3C motif) or peptides with changes in the CX3C motif (Δ+1, Δ−1, EYp1). Control mice were treated with PBS containing a similar dilution of DMSO used to solubilize the peptides.
Mice were anesthetized with Avertin and exsanguinated by severing the right caudal artery. Bronchoalveolar leukocyte (BAL) cells were harvested by lung lavage with PBS containing 1% bovine serum albumin (BSA, Sigma). The procedure used for extracellular staining of BAL cells was modified for microculture staining as described (55,57). Briefly, BAL cells were washed in Dulbecco's PBS (GIBCO) containing 1% bovine serum albumin (Sigma), blocked with 10% normal mouse sera diluted in PBS containing 1% bovine serum albumin, and then stained (4° C., 30 min) with an appropriate dilution of FITC-conjugated or PE-conjugated anti-CD3ε (145-2C11), anti-CD45R/B220 (RA3-6B2), anti-CD8 (Ly-2), anti-neutrophil (PMN) (RB6-8C5), anti-CD11b (M1/70) and isotype antibody controls (all from Pharmingen, San Diego, Calif.).

CD3+ BAL cells = assay: Intracellular cytokine expression by CD3+ T cells following in vivo peptide treatment; design: species or system BALB/c mice
Procedure: as §2
Intracellular cytokine staining was modified for microculture staining as described (55, 57). Briefly, BAL cells were incubated in PBS containing Golgi Stop (Pharmingen) for 3 h at 37° C. to allow for accumulation of intracellular cytokines. The cells were washed in PBS containing 1% bovine serum albumin, blocked with 10% normal mouse sera diluted in PBS containing 1% bovine serum albumin, and stained (4° C., 30 min) with an appropriate dilution of anti-CD3 antibody, fixed and permeabilized in Cytofix/Cytoperm (Pharmingen). The cells were washed in Cytofix/Cytoperm buffer and stained (4° C., 30 min) with appropriate dilutions of anti-IL-2 (JES6-5H4), anti-IL-4 (BVD4-1D11), anti-IL-5 (TRFK5), IL-10 (JES3-16E3), anti-IFNγ (XMG1.2), or anti-TNFα (MP6-XT22) antibodies (Pharmingen) diluted in Cytofix/Cytoperm. Extra- and intracellular staining was analyzed by flow cytometry using a FACScan and Cell Quest software (Becton Dickinson, San Diego, Calif.). Total cytokine expression by CD3+ T cells was determined from the percent cytokine expression of CD3+ T cells and total number of cells recovered. The total number of CD3+ BAL cells expressing a particular cytokine was determined by multiplying the total number of BAL cells by the percent CD3+ cells expressing that particular cytokine.

RSV = RSV plaque reduction assay on Vero cells (Example 1); assay type: cell-based, RSV/A2
Procedure: Dilutions of Fkn (R&D systems), SDF-1 α (R&D systems), G glycoprotein, heparin (Sigma), G glycoprotein peptides and anti-CX3CR1 antibody were made in serum-free Dulbecco's Modified Eagle's Media (DMEM; GIBCO) containing 1% BSA (Sigma) and preincubated with the Vero cells for 1 h at 37° C. 50 μg of anti-CX3CR1 antibody or heat-inactivated (56° C., 30 min) normal rabbit sera (control) were used in all experiments. […] Dilutions of RSV were made in serum-free DMEM (GIBCO) and added to pretreated Vero cells for 2 h at 37° C. Following virus infection, DMEM (GIBCO) containing 10% FBS (Hyclone, Logan, Utah) was added to the wells. Plaques were enumerated using immunostaining for F and G glycoproteins using biotinylated monoclonal antibodies 131-2A (anti-F glycoprotein) and 130-2G (anti-G glycoprotein) as described^45.
RSV plaque reduction following treatment with G glycoprotein, Fkn, G glycoprotein peptides, anti-CX3CR1 antibody, SDF-1-α and/or heparin as described in Methods. Percent inhibition was determined from the mean plaque forming units (pfu) of treated Vero cells over saline-treated Vero cells using a dilution of RSV that would produce 40-80 pfu. p-values were determined using unpaired two-tailed analysis where p<0.05 is significant. The concentration of G glycoprotein was estimated using a molecular weight of 90 kD.

[2] = target: T1, Fkn binding to 293-CX3CR1 cells (Homo sapiens, UniProt P49238); settings: chemokine 10 μM
T1 construct: host or cells: HEK 293 cells stably transfected with CX3CR1
T1 sequence (P49238 whole entry): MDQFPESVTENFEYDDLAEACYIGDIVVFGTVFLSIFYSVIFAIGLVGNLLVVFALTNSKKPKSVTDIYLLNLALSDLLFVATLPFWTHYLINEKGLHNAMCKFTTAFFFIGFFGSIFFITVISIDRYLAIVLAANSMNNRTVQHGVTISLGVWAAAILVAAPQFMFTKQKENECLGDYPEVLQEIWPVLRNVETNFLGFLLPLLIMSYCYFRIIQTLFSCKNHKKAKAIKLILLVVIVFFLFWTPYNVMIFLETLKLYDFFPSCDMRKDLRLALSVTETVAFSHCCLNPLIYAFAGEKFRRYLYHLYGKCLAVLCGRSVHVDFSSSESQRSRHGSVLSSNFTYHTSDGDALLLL

[3] = system: G glycoprotein binding to 293-CX3CR1 cells; design: species or system human; settings: chemokine 10 μM
Procedure: All binding studies were done on ice and either G glycoprotein or human Fkn (R&D Diagnostics, Minneapolis, Minn.) were diluted between 1 nM-100 nM in PBS (GIBCO) containing 1% bovine serum albumin (Sigma) and incubated with the 293-CX3CR1 cells or 293 control cells for 30 min at 4° C. […] Without washing, 100 pM of either Fkn or G glycoprotein was added and incubated for 30 min at 4° C. The cells were washed, blocked with FcγRIII blocking antibody (HB197) for 30 min on ice, washed and stained as appropriate with either an anti-G glycoprotein monoclonal antibody cocktail (132-5B, 132-5G, 130-2G, 232-IF) or a biotinylated anti-G glycoprotein monoclonal antibody cocktail (130-2G, 131-2G) or anti-Fkn monoclonal antibody (51637.11; R&D Diagnostics). Concentrations of 1 μg of anti-G glycoprotein monoclonal antibody (131-2G)^34, rabbit anti-CX3CR1 sera^33, and anti-CX3CR1 monoclonal antibody containing 10 μg/ml heparin were used in all experiments. […] Staining was detected with absorbed FITC-goat anti-mouse (H & L chain) monoclonal antibody (PharMingen, San Diego, Calif.) or streptavidin-PE (PharMingen) using flow cytometry (FACScan, Becton-Dickinson, Mountain View, Calif.). A 76 amino acid ^125I-Fkn polypeptide comprising the […] (NEN, Boston, Mass.) was used in radioligand studies^33. As a control, the void volume following purified G glycoprotein passaged over an anti-G glycoprotein antibody (130-2G) affinity column was examined by flow cytometry for binding to either 293 or 293-CX3CR1 cells.
For peptide inhibition studies, a series of G glycoprotein peptides were identified in the amino acid sequence of the A2 strain of RSV (GENBANK, attachment protein locus 1912305, Table 4). The peptides were synthesized using a simultaneous, multiple solid-phase peptide synthesis method on a peptide synthesizer (Perkin-Elmer Applied Biosystems, Berkeley, Calif.), and tested for homogeneity by reverse-phase liquid chromatography and capillary electrophoresis (www.biotech.cdc.gov/protein/methods). Inhibition assays were performed as described for the binding studies above.
To determine if G glycoprotein bound 293-CX3CR1 cells via CX3CR1, the ability of four reagents (anti-CX3CR1 rabbit antiserum, anti-CX3CR1 monoclonal antibody (2A9-1), Fkn and a 76 amino acid 125-I-Fkn polypeptide containing the CX3C domain) that bind to CX3CR1 to block G glycoprotein binding to 293-CX3CR1 cells was examined. In addition, to determine if binding of G glycoprotein to 293-CX3CR1 cells was dependent upon the CX3C motif, G glycoprotein peptides with a single residue insertion (Δ+1) or deletion (Δ−1) in the CX3C motif and also peptides that lacked or included the CX3C motif (Table 4) were generated. This panel of peptides was analyzed for their ability to block G glycoprotein or Fkn binding to 293-CX3CR1 cells.
Inhibition of Fkn and G glycoprotein binding to 293-CX3CR1 cells by treatment with monoclonal antibodies to G glycoprotein or CX3CR1, or treatment with G glycoprotein, Fkn, or G glycoprotein peptides in the presence or absence of heparin as described in Methods. […] The concentration of G glycoprotein was estimated using a molecular weight of 90 kD.

TCAAACKRIPNKK [EYp1, 13-mer G glycoprotein peptide variant of RT33 with CAAAC motif]
total BAL numbers compared to mice treated with RT34, Δ−1 or PBS ([1]; day 3 pi): reduced BAL numbers
numbers of BAL cell types (B220+, CD3+, CD11b+, NK, PMN) ([1]; days 3, 5, 7 and 14 pi): increased numbers of CD3+ cells on days 5 and 7 pi
course of BAL numbers ([1]; from day 3 to day 14 pi): increased
Total IC cytokine Expressing CD3^+ BAL cells (×10^3) ± SEM: IFNγ (CD3+ BAL cells; day 3 pi): 32 ± 7.3 ×10^3
Total IC cytokine Expressing CD3^+ BAL cells (×10^3) ± SEM: IL-4 (CD3+ BAL cells; day 3 pi): 32 ± 7.2 ×10^3
Total IC cytokine Expressing CD3^+ BAL cells (×10^3) ± SEM: IL-5 (CD3+ BAL cells; day 3 pi): 34 ± 7.7 ×10^3
Total IC cytokine Expressing CD3^+ BAL cells (×10^3) ± SEM: IL-6 (CD3+ BAL cells; day 3 pi): 35 ± 8.0 ×10^3
Total IC cytokine Expressing CD3^+ BAL cells (×10^3) ± SEM: TNFα (CD3+ BAL cells; day 3 pi): 36 ± 8.1 ×10^3
Total IC cytokine Expressing CD3^+ BAL cells (×10^3) ± SEM: IL-2 (CD3+ BAL cells; day 3 pi, peptide 24 hours prior to RSV infection): 26 ± 6.0 ×10^3
Total IC cytokine Expressing CD3^+ BAL cells (×10^3) ± SEM: IFNγ (CD3+ BAL cells; day 5 pi): 26 ± 5.4 ×10^3
Total IC cytokine Expressing CD3^+ BAL cells (×10^3) ± SEM: IL-2 (CD3+ BAL cells; day 5 pi): 17 ± 3.6 ×10^3
Total IC cytokine Expressing CD3^+ BAL cells (×10^3) ± SEM: IL-4 (CD3+ BAL cells; day 5 pi): 28 ± 5.6 ×10^3
Total IC cytokine Expressing CD3^+ BAL cells (×10^3) ± SEM: IL-5 (CD3+ BAL cells; day 5 pi): 32 ± 6.5 ×10^3
Total IC cytokine Expressing CD3^+ BAL cells (×10^3) ± SEM: IL-6 (CD3+ BAL cells; day 5 pi): 19 ± 7.4 ×10^3
Total IC cytokine Expressing CD3^+ BAL cells (×10^3) ± SEM: TNFα (CD3+ BAL cells; day 5 pi): 41 ± 8.4 ×10^3
Total IC cytokine Expressing CD3^+ BAL cells (×10^3) ± SEM: IFNγ (CD3+ BAL cells; day 7 pi): 18 ± 2.6 ×10^3
Total IC cytokine Expressing CD3^+ BAL cells (×10^3) ± SEM: IL-2 (CD3+ BAL cells; day 7 pi): 7.8 ± 1.1 ×10^3
Total IC cytokine Expressing CD3^+ BAL cells (×10^3) ± SEM: IL-4 (CD3+ BAL cells; day 7 pi): 12 ± 1.6 ×10^3
Total IC cytokine Expressing CD3^+ BAL cells (×10^3) ± SEM: IL-5 (CD3+ BAL cells; day 7 pi): 20 ± 2.8 ×10^3
Total IC cytokine Expressing CD3^+ BAL cells (×10^3) ± SEM: IL-6 (CD3+ BAL cells; day 7 pi): 17 ± 2.4 ×10^3
Total IC cytokine Expressing CD3^+ BAL cells (×10^3) ± SEM: TNFα (CD3+ BAL cells; day 7 pi): 6.8 ± 2.8 ×10^3
Total IC cytokine Expressing CD3^+ BAL cells (×10^3) ± SEM: IFNγ (CD3+ BAL cells; day 14 pi): 5.3 ± 0.3 ×10^3
Total IC cytokine Expressing CD3^+ BAL cells (×10^3) ± SEM: IL-2 (CD3+ BAL cells; day 14 pi): 5.1 ± 0.3 ×10^3
Total IC cytokine Expressing CD3^+ BAL cells (×10^3) ± SEM: IL-4 (CD3+ BAL cells; day 14 pi): 5.4 ± 0.3 ×10^3
Total IC cytokine Expressing CD3^+ BAL cells (×10^3) ± SEM: IL-5 (CD3+ BAL cells; day 14 pi): 7.7 ± 0.5 ×10^3
Total IC cytokine Expressing CD3^+ BAL cells (×10^3) ± SEM: IL-6 (CD3+ BAL cells; day 14 pi): 5.0 ± 0.3 ×10^3
Total IC cytokine Expressing CD3^+ BAL cells (×10^3) ± SEM: TNFα (CD3+ BAL cells; day 14 pi): 6.8 ± 0.5 ×10^3

SDF-1α [reference compound]
plaque inhibition (%) (RSV; 1 nM): 5%
plaque inhibition (%) (RSV; 10 nM): 7%
plaque inhibition (%) (RSV; 100 nM): 12%
effect on RSV plaque formation / plaque number (RSV; in words): no effect on RSV plaque formation was detected

B1: MIP-2: chemokine (protein)
chain: AVVASELRCQCLKTLPRVDFKNIQSLSVTPPGPHCAQTEVIATLKGGQKVCLDPEAPLVQKIIQKILNKGKAN
Range of Inhibition (%) of Fkn binding [2]: 0-4%
Range of Inhibition (%) of G glycoprotein binding [3]: 2-8%

B2: C10: macrophage inflammatory protein-related protein-1 (C10), chemokine (protein)
chain: GLIQEMEKEDRRYNPPIIHQGFQDTSSDCCFSYATQIPCKRFIYYFPTSGGCIKPGIIFISRRGTQVCADPSDRRVQRCLSTLKQGPRSGNKVIA
Range of Inhibition (%) of Fkn binding [2]: 4-8%
Range of Inhibition (%) of G glycoprotein binding [3]: 5-8%

B3: KC: growth regulated oncogene-α, KC, chemokine (protein, UniProt P12850 25-96, looked up)
Growth-regulated alpha protein: APIANELRCQCLQTMAGIHLKNIQSLKVLPSGPHCTQTEVIATLKNGREACLDPEAPLVQKIVQKMLKGVPK
Range of Inhibition (%) of Fkn binding [2]: 4-6%
Range of Inhibition (%) of G glycoprotein binding [3]: 0-6%

B4: IP-10: chemokine (protein, UniProt P17515 22-98, looked up)
C-X-C motif chemokine 10: IPLARTVRCNCIHIDDGPVRMRAIGKLEIIPASLSCPRVEIIATMKKNDEQRCLNPESKTIKNLMKAFSQKRSKRAP
Range of Inhibition (%) of Fkn binding [2]: 0-6%
Range of Inhibition (%) of G glycoprotein binding [3]: 0-4%
